Laboratory results reported in US20130252331A1, “COMPOSITIONS AND METHODS FOR MODULATING METABOLISM” (priority 2010, published 2013).

Assays:
3T3L1 cells = assay: Adipogenesis of 3T3L1 cells, Oil Red O staining for lipid accumulation; type: cell-based; conditions: 3T3L1 cells differentiated for eight days in increasing concentrations
Source text: FIG. 1 includes eight micrographs showing that the inhibition of BET protein family members blocks adipogenesis in a dose dependent manner in 3T3L1 cells, which is a cell line that is widely used as a model for adipogenesis. […] Following drug treatment cells were stained with Oil Red O as a measure of lipid accumulation that indicates the degree of adipocyte differentiation.
3T3L1 cells are a well characterized cell type that can be differentiated into fat cells that contain large lipid droplets. […] The cells were differentiated for eight days. On the final day, the cells were stained with Oil Red O, which stains for lipid accumulation in the cells.

[1] = tested on: genes that control fat accumulation in liver; assay: Liver RNA expression of genes that control fat accumulation in ob/ob mice; type: in vivo, mouse; conditions: two weeks of treatment
Protocol: Following treatment, the organs were harvested and liver RNA was isolated to measure gene expression profiles. The expression levels of a panel of genes that function in the control of fat accumulation in liver were measured.

[2] = Unspecified biological assay; conditions: assay not specified
C/EBPα = C/EBPα gene expression in 3T3L1 cells during adipocyte differentiation (RT-PCR); type: cell-based; conditions: 500 nM, first four days of differentiation
Protocol: (§1) C/EBPα and PPARγ are essential, positive regulators of adipogenesis. […] Results were obtained using RT-PCR.
(§2) Gene expression levels of two key proteins that function in fat cell differentiation, C/EBPα and PPARγ, were measured over the first four days of differentiation.

PPARγ = PPARγ gene expression in 3T3L1 cells during adipocyte differentiation (RT-PCR); type: cell-based; conditions: 500 nM, first four days of differentiation
Protocol: as §1, §2

ob/ob mice [3] = assay: Weight gain, food intake and feed efficiency in ob/ob mouse obesity model; type: in vivo; conditions: 50 mg/kg, 14 days
Source text: FIGS. 3A-3E are graphs showing that inhibition of BET family members blocks weight gain in ob/ob mice, a murine obesity model that lacks leptin.
Ob/ob mice are a well established mouse obesity model that gains weight rapidly on a normal mouse chow diet. […] Without wishing to be bound by theory, it is likely that the disparity is due to differences in the way that ob/ob mice treated with JQ are metabolizing food relative to untreated ob/ob mice.

C57B/6 male mice = assay: Insulin tolerance test in C57B/6 mice on high fat diet; type: in vivo, mouse
Protocol: FIG. 9B is a graph of the area under the curve (AUC) of the data in FIG. 9A.
8 week old C57B/6 male mice were started on a high fat diet containing 60% kcal fat. […] Body weight was measured every week. The mice were then examined for the degree of insulin resistance by insulin tolerance testing. […] Following insulin injection blood glucose was measured at the indicated time points.

ob/ob mice [4] = assay: Liver and subcutaneous fat weight and liver H&E histology in ob/ob mice
Protocol: The sections were stained with hematoxylin and eosin.
Five week old Ob/ob mice were treated with either vehicle (control) or a chemical inhibitor of the BET protein family (JQ) for approximately two weeks. Following treatment the mice were euthanized and organs were harvested and weighed. The weight of the livers and subcutaneous fat were determined.

[5] = approximately two weeks of treatment

Cc1sc2c(c1C)C(c1ccc(Cl)cc1)=N[C@H](CC(=O)OC(C)(C)C)c1nnc(C)n1-2 [JQ (R) enantiomer]
adipogenesis / lipid accumulation (Oil Red O staining) (3T3L1 cells): no effect on the generation of lipid

Cc1sc2c(c1C)C(c1ccc(Cl)cc1)=N[C@@H](CC(=O)OC(C)(C)C)c1nnc(C(F)(F)F)n1-2 [JQ11]
liver expression of ACC beta [1]: reduced the expression
liver expression of DGAT [1]: reduced the expression
liver expression of FAS [1]: not statistically significant
liver expression of PPARγ2 [1]: reduced the expression
liver expression of SCD1 [1]: reduced the expression
liver expression of SREBP [1]: reduced the expression

Cc1sc2c(c1C)C(c1ccc(Cl)cc1)=N[C@@H](CC(=O)NN)c1nnc(C)n1-2 [Compound 3]
activity in at least one biological assay [2]: showed activity

Cc1sc2c(c1C)C(c1ccc(Cl)cc1)=N[C@@H](CC(=O)OC(C)(C)C)c1nnc(C)n1-2 [JQ1 (S) enantiomer, (S)-tert-Butyl 2-(4-(4-chlorophenyl)-2,3,9-trimethyl-6H-thieno[3,2-f][1,2,4]triazolo[4,3-a][1,4]diazepin-6-yl)acetate]
adipogenesis / lipid accumulation (Oil Red O staining) (3T3L1 cells): inhibited lipid accumulation
adipogenesis / lipid accumulation (Oil Red O staining) (3T3L1 cells; listed as JQ (S) enantiomer): inhibited adipogenesis in a dose dependent manner

Cc1sc2c(c1C)C(c1ccc(Cl)cc1)=N[C@@H](CC(=O)N/N=C/c1ccc(O)cc1)c1nnc(C)n1-2 [Compound 4]
activity in at least one biological assay [2]: showed activity

Cc1sc2c(c1C)C(c1ccc(Cl)cc1)=N[C@@H](CC(=O)OC(C)(C)C)c1nnc(C)n1-2 [JQ]
induction of C/EBPα expression (C/EBPα): significantly blocked the induction
induction of PPARγ expression (PPARγ): significantly blocked the induction
food intake (ob/ob mice [3]): mildly inhibited
weight gain (ob/ob mice [3]): blocked weight gain
blood glucose after insulin injection (C57B/6 male mice; 7 weeks high fat diet and 50 mg/kg daily, 4 h fast, insulin 0.5 U/kg intraperitoneal): sustained decrease in blood glucose up to 2 hours
area under the curve for change in blood glucose (C57B/6 male mice; 2 hour time course after insulin, p<0.05): statistically significant decrease
liver weight (ob/ob mice [4]; [5]): statistically significant reductions
subcutaneous fat weight (ob/ob mice [4]; [5]): statistically significant reductions
hepatic steatosis / liver histology (H&E) (ob/ob mice [4]; two week treatment): complete block in hepatic steatosis
